Reference: EP4129319A1, “PORE-FORMING ANTIMICROBIAL PEPTIDES” (priority 2021, dated 2023)
Ends that are not written are not given here.

Assays:
[1] = Calcein leakage assay; format: biochemical; conditions: calcein leakage, POPC:POPG (1:1 mol/mol) LUVs
Protocol: Chemicals. […] (Prague, Czech Republic), and Caslo ApS (Kongens Lyngby, Denmark). […] The bacterial stock was stored at -80°C.
Calcein leakage assay. Pore-forming activity of the peptides was tested by their ability to leak the self-quenching fluorescent dye calcein entrapped within POPC:POPG (1:1 mol/mol) large unilamellar vesicles (LUVs). After mixing DiD to the lipid mixture (in the ratio 1:500 mol/mol), a thin lipid film was created by evaporating of the chloroform, traces of which were removed by desiccating overnight. The lipid film was then dissolved in calcein buffer, followed by vigorous vortexing. The lipid suspension was subsequently subjected to 10 freeze-thaw cycles. To obtain uniform LUVs, the sample was passed 50 times back and forth through an extruder stacked with 100 nm pore size polycarbonate membrane filter. Afterwards, the untrapped calcein was removed on a HiTrap Desalting Column (with Sephadex G-25 Superfine resin) by washing with PBS buffer. The concentration of the lipid suspension was then adjusted to 0.02 mM. The concentration of the peptide solution was 0.1 mM. The inventors monitored the peptide-induced release of calcein from LUVs by the increase in fluorescence intensity after adding increasing amounts of peptides to the LUVs under constant stirring at 25 °C. The investigated range of peptide/lipid molecular ratio was from 1:100 to 1:10. The excitation and emission wavelengths were set to 495 nm and 520 nm, respectively. Maximum fluorescence intensity was obtained by disrupting all the vesicles in the end by adding 10% Triton X-100. Experiments were performed in triplicates with independently prepared lipid vesicles.

[2] = PBS buffer

Substance: KKKKLKKILKKLFQFINQLDNQLQDIAQNA-NH2 [KDFA2i+7-npNH2]
- Extent of leakage (in percentage) at increasing peptide-to-lipid ratio (mol/mol) 1:10 ([1]; peptide-to-lipid ratio 1:10 (mol/mol)): Aggregated peptides and no leakage
- Extent of leakage (in percentage) at increasing peptide-to-lipid ratio (mol/mol) 1:20 ([1]; peptide-to-lipid ratio 1:20 (mol/mol)): Aggregated peptides and no leakage
- Extent of leakage (in percentage) at increasing peptide-to-lipid ratio (mol/mol) 1:50 ([1]; peptide-to-lipid ratio 1:50 (mol/mol)): Aggregated peptides and no leakage
- Extent of leakage (in percentage) at increasing peptide-to-lipid ratio (mol/mol) 1:100 ([1]; peptide-to-lipid ratio 1:100 (mol/mol)): Aggregated peptides and no leakage
- aggregation / solubilization problem (in words) [2]: peptide aggregation
